Data taken from publication PMC4549042, “Targeting procaspase-3 with WF-208, a novel PAC-1 derivative, causes selective cancer cell apoptosis” (Journal of Cellular and Molecular Medicine, 2015).
pEC50, pIC50: −log10 of the molar value. Residues, ends and D or L forms follow the SMILES beside them. *: point of attachment. Cbz = O=C(OCc1ccccc1)*; CH2F = FC*

The compounds below were run against T1, rh-procaspase-3 (Homo sapiens, UniProt P42574) (assay: Caspase-3 activation assay (procaspase-3 activation in vitro)). Conditions: rh-procaspase-3, concentrations 0.08–100 μM.
T1 construct: purchased R&D System (Minneapolis, USA)
T1 sequence (P42574 1-277): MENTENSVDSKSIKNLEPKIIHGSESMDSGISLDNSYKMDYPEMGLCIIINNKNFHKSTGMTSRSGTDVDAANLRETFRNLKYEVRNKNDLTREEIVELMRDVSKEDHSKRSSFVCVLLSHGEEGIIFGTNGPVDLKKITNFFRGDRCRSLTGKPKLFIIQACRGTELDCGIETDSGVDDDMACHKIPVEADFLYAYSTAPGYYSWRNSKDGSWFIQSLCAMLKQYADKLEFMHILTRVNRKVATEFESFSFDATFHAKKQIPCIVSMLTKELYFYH
Assay type: biochemical
Method: Procaspase-3 protein was purchased from R&D System (Minneapolis, USA). Procaspase-3 protein was added into 384-well plates. Tested compounds (or DMSO as control) were then added to achieve a final concentration of procaspase-3 of 50 ng/ml. Each plate was incubated for 2 hrs at 37°C. Then caspase-3 peptide substrate (acetyl Asp-Glu-Val-Asp-[…] (Ac-DEVD-pNa), 200 μM) were added. The absorbance of each well was measured at 405 nm in kinetic mode for 10 min [13].

| SMILES | pEC50 |
| --- | --- |
| C=CCc1cccc(/C=N/NC(=O)CN2CCN(Cc3ccccc3)CC2)c1O [PAC-1] | 5.22 |

The compounds below were run on HL-60 cell line (assay: MTT cell viability assay, HL-60). Conditions: Homo sapiens, 72 hrs.
Assay type: cell-based
Method: (§1) The cell viability effects of the tested compounds were determined by MTT assay. Cells (1 × 10^4 cells/100 μl/well) were seeded into 96-well culture plates. After overnight incubation, cells were treated with various concentrations of compounds for 72 hrs. Subsequently, 10 μl MTT solution (2.5 mg/ml in PBS) was added to each well, than the cells were incubated for an additional 3–4 hrs at 37°C. After centrifugation (200 × g, 10 min.), the medium with MTT was aspirated, followed by the addition of 100 μl DMSO. The optical density of each well was measured at 570 nm with a Biotek Synergy TM HT Reader.

| SMILES | IC50 [µM] |
| --- | --- |
| C=CCc1cccc(/C=N/NC(=O)CN2CCN(Cc3nc(-c4ccc(COc5ccc(Cl)cc5)cc4)no3)CC2)c1O [A1] | 0.25 |
| C=CCc1cccc(/C=N/NC(=O)CN2CCN(Cc3nc(-c4ccc(COc5ccc(F)cc5)cc4)no3)CC2)c1O [A2] | 0.39 |
| C=CCc1cccc(/C=N/NC(=O)CN2CCN(Cc3nc(-c4ccc(COc5cccc(Cl)c5)cc4)no3)CC2)c1O [A3] | 0.4 |
| C=CCc1cccc(/C=N/NC(=O)CN2CCN(Cc3nc(-c4ccc(COc5ccccc5C(F)(F)F)cc4)no3)CC2)c1O [A4] | 0.35 |
| C=CCc1cccc(/C=N/NC(=O)CN2CCN(Cc3ccccc3)CC2)c1O [PAC-1] | 2.1 |

Continued, values first:

| IC50 [µM] | SMILES |
| --- | --- |
| 1.26 | O=C(CN1CCN(Cc2nc(-c3ccc(COc4ccc(Cl)cc4)cc3)no2)CC1)N/N=C/c1ccc(OCc2ccccc2)cc1O [B1] |
| 1.02 | O=C(CN1CCN(Cc2nc(-c3ccc(COc4ccc(F)cc4)cc3)no2)CC1)N/N=C/c1ccc(OCc2ccc(Cl)cc2Cl)cc1O [B2] |
| 0.98 | O=C(CN1CCN(Cc2nc(-c3ccc(COc4ccc(F)cc4)cc3)no2)CC1)N/N=C/c1ccc(OCc2cccc(C(F)(F)F)c2)cc1O [B3] |
| 0.67 | CC(C)(C)c1ccc(COc2ccc(/C=N/NC(=O)CN3CCN(Cc4nc(-c5ccc(COc6ccc(Cl)cc6)cc5)no4)CC3)c(O)c2)cc1 [B4] |
| 1.07 | O=C(CN1CCN(Cc2nc(-c3ccc(COc4ccc(Cl)cc4)cc3)no2)CC1)N/N=C/c1ccc(OCc2ccc(Cl)cc2Cl)cc1O [B5] |
| 0.6 | CC(C)(C)c1ccc(COc2ccc(/C=N/NC(=O)CN3CCN(Cc4nc(-c5ccc(COc6ccc(F)cc6)cc5)no4)CC3)c(O)c2)cc1 [B6] |
| 0.34 | O=C(CN1CCN(Cc2nc(-c3ccc(COc4ccc(F)c(F)c4)cc3)no2)CC1)N/N=C/c1ccc(OCc2ccccc2)cc1O [B7] |
| 0.3 | O=C(CN1CCN(Cc2nc(-c3ccc(COc4ccc(F)c(F)c4)cc3)no2)CC1)N/N=C/c1ccc(OCc2ccc(Cl)cc2)cc1O [B8] |
| 0.41 | O=C(CN1CCN(Cc2nc(-c3ccc(COc4ccc(F)c(F)c4)cc3)no2)CC1)N/N=C/c1ccc(OCc2ccc(Cl)cc2Cl)cc1O [B9] |
| 0.4 | CC(C)(C)c1ccc(COc2ccc(/C=N/NC(=O)CN3CCN(Cc4nc(-c5ccc(COc6ccccc6C(F)(F)F)cc5)no4)CC3)c(O)c2)cc1 [B10] |
| 1.93 | O=C(CN1CCN(Cc2nc(-c3ccc(COc4ccccc4C(F)(F)F)cc3)no2)CC1)N/N=C/c1ccc(OCc2cccc(F)c2)cc1O [B11] |
| > 20 | O=C(CN1CCN(Cc2nc(-c3ccc(COc4ccc(Cl)cc4)cc3)no2)CC1)N/N=C/c1ccc(OCc2cccc(Cl)c2)cc1O [B12] |
| 1.08 | O=C(CN1CCN(Cc2nc(-c3ccc(COc4ccccc4C(F)(F)F)cc3)no2)CC1)N/N=C/c1ccc(OCc2csc(Cc3ccc4c(c3)OCO4)n2)cc1O [C1] |

The compounds below were run on HL-60 and U-937 cell lines (assay: Western blot of Bcl-2 family and IAP proteins in HL-60 and U-937). Conditions: 5 μM MG132 co-treated with 10 μM WF-208, 24 hrs.
Assay type: cell-based, human
Method: Approximately 1 × 10^7 HL-60 cells were gathered after pre-treatment with PAC-1 and WF-208 as previously described. The tumour tissue protein was purified according to the reported methods. Western blotting was performed as previously described. All antibodies were purchased from Cell Signaling Technology. In brief, an equal amount of total protein extracts from cultured cells or tissues were fractionated by 10–15% SDS-PAGE and electrically transferred onto polyvinylidene difluoride (PVDF) membranes. Different primary antibodies and corresponding horseradish peroxidase-conjugated secondary antibodies were used to detect the proteins. The bound secondary antibodies on the PVDF membrane were reacted with ECL™ Western Blotting Reagents detection reagents (Thermo Fisher, Rockford, USA) and exposed to X-ray films. Results were normalized to the internal control β-actin.

| SMILES | effect on down-regulation of XIAP and survivin induced by WF-208 |
| --- | --- |
| CC(C)C[C@@H](C=O)NC(=O)[C@H](CC(C)C)NC(=O)[C@H](CC(C)C)NC(=O)OCc1ccccc1 [MG132, reference compound] (Cbz-Leu-Leu-Leu-aldehyde) | blocked the down-regulation |

These compounds were tested on HL-60 and U-937 cell lines (assay: Caspase inhibitors on WF-208-induced early apoptosis (Annexin V/PI)). Conditions: 50 μM inhibitor, 10 μM WF-208, 24 hrs.
Assay type: cell-based, human
Method: Compounds were incubated with HL-60 and U-937 cells for 24 hrs. The cells were harvested and double-stained with FITC-Annexin V Apoptosis Detection Kit (BD Biosciences, San Jase, USA). Cells that positively stained with Annexin V and negatively stained with PI were considered to be early apoptotic.

| SMILES | effect of inhibitor on WF-208-induced early apoptosis |
| --- | --- |
| COC(=O)CC[C@H](NC(=O)[C@H](CC(=O)OC)NC(=O)OCc1ccccc1)C(=O)N[C@H](C(=O)N[C@@H](CC(=O)OC)C(=O)CF)C(C)C [Z-DEVD-FMK] | abolish |
| COC(=O)CC[C@H](NC(=O)[C@H](CC(C)C)NC(=O)OCc1ccccc1)C(=O)N[C@@H](Cc1cnc[nH]1)C(=O)N[C@@H](CC(=O)OC)C(=O)CF [Z-LEHD-FMK] (Cbz-LE(OMe)HD(OMe)-CH2F) | partly inhibit |
| COC(=O)C[C@H](NC(=O)[C@H](C)NC(=O)[C@@H](NC(=O)OCc1ccccc1)C(C)C)C(=O)CF [Z-VAD-FMK] (Cbz-Val-Ala-Asp(OMe)-CH2F) | abolish |

The compounds below were run on PC-3 xenograft (assay: Human prostatic carcinoma PC-3 xenograft mouse model). Conditions: 2.5 mg/kg i.v., 15 days.
Assay type: in vivo
Method: To determine the anti-tumour activity of WF-208 in vivo, viable human prostate cancer PC-3 cells (5 × 10^6/100 μl PBS per mouse) were subcutaneously (s.c.) injected into the right flank of 7- to 8-week old male SCID mice. When the average tumour volume reached 100 mm^3, mice were randomly divided into various treatment and control group (eight mice per group). Tumour size was measured once every 2 days with a calliper (calculated volume = shortest diameter^2 × longest diameter/2). Body weight, diet consumption and tumour size were recorded once every 2 days. After 2 weeks, mice were killed and tumours were excised and stored at −80°C until further analysis.

| SMILES | influence on body weight | tumour volume compared with control group |
| --- | --- | --- |
| C=CCc1cccc(/C=N/NC(=O)CN2CCN(Cc3ccccc3)CC2)c1O [PAC-1] | minimal influence | no significantly difference |

The compounds below were run on mouse primary cortical cell (assay: Cytotoxicity in mouse primary cortical neuron cells). Conditions: neurotoxicity.
Assay type: cell-based
Method: as §1

| SMILES | pIC50 |
| --- | --- |
| C=CCc1cccc(/C=N/NC(=O)CN2CCN(Cc3ccccc3)CC2)c1O [PAC-1] | 4.30 |
